The numbers were not newly measured in patent US20220193441A1, “ENERGY AUGMENTATION STRUCTURES, EMITTERS OR COLLECTORS, FOR USE IN NON-INVASIVE IN-SITU PHOTOBIOMODULATION” (IMMUNOLIGHT, LLC, priority 2019, published 2022), which cites them from elsewhere.

For data set [1], the system named is epidermal growth factor receptor. To be noted: higher UVA light doses, with versus without trimethyl psoralen.
The conditions of data set [2]: clinical use.
For data set [3], the system named is tumors. The conditions noted are these: in vivo.

Consider `Cc1cc2cc3c(C)cc(=O)oc3c(C)c2o1` [trimethyl psoralen], for which, in data set [1], the “inhibition of 125I-EGF specific binding” value was “higher efficiency”. With `Oc1cccc(-c2c3nc(c(-c4cccc(O)c4)c4ccc([nH]4)c(-c4cccc(O)c4)c4nc(c(-c5cccc(O)c5)c5ccc2[nH]5)CC4)C=C3)c1` [Foscan, Tetra (m-hydroxyphenyl) chlorin], the “duration of skin photosensitivity” value in data set [2] is recorded as “approximately 2 weeks”. Regarding `CC(=O)[O-].CC(=O)[O-].CCc1c(CC)c2cc3nc(cnc4cc(OCCOCCOCCOC)c(OCCOCCOCCOC)cc4ncc4nc(cc1[n-]2)C(CCCO)=C4C)C(C)=C3CCCO.O.[Lu+3]` [Lutetium texaphryin, Motexafin lutetium], the “selectivity for tumors compared to normal tissues” value in data set [3] is reported as “one of the greatest reported selectivities for tumors”.
